Source: ChEMBL document CHEMBL1201862, “PubChem BioAssay data set” (2004)
Activity calls are given as the source filed them.

Experiments:
[1] = biological target: T1, Heat shock 70 kDa protein 1A (Homo sapiens, UniProt P0DMV8); assay: Hsp70 inhibitors, biochemical, TR-FRET (AID 786)
[2] = biological target: T1, Heat shock 70 kDa protein 1A; assay: Hsp70 inhibitors, probe displacement, primary screen, biochemical, fluorescence polarization (AID 583)
Large T antigen = Large T antigen (Simian virus 40, UniProt P03070); assay type: functional, Betapolyomavirus macacae;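 note: Confirmatory-stage PubChem screen for compounds that inhibit SV40 T antigen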
Large T antigen, sequence (P03070 whole entry): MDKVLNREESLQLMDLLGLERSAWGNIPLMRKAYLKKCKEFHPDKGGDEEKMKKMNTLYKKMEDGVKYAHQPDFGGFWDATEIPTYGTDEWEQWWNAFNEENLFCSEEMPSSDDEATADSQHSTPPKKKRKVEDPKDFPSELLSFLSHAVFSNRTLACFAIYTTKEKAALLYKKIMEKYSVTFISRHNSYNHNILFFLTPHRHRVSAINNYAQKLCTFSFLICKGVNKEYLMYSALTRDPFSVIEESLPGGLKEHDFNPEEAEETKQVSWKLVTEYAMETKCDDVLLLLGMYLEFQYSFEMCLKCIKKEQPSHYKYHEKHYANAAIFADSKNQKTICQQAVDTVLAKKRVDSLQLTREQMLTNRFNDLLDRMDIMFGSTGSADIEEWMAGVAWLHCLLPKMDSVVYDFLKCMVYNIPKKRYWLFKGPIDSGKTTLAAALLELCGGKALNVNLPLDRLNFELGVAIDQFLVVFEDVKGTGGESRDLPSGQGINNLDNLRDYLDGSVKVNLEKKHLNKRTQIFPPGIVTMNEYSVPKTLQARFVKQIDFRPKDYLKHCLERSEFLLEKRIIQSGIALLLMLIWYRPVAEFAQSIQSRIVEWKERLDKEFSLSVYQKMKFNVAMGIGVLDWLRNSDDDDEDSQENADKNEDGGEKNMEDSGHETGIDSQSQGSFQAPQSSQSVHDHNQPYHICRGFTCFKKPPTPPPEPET

[3] = biological target: Neurotensin receptor type 1 (Homo sapiens, UniProt P30989); assay type: functional;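 note: Image-based confirmatory dose-response assay measuring agonist activity at NTR1; NTR1-expressing U2OS osteosarcoma cells imaged for beta-arrestin GFP spot formation; agonist potency where compounds increase beta-arrestin recruitment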
Neurotensin receptor type 1, sequence (P30989 whole entry): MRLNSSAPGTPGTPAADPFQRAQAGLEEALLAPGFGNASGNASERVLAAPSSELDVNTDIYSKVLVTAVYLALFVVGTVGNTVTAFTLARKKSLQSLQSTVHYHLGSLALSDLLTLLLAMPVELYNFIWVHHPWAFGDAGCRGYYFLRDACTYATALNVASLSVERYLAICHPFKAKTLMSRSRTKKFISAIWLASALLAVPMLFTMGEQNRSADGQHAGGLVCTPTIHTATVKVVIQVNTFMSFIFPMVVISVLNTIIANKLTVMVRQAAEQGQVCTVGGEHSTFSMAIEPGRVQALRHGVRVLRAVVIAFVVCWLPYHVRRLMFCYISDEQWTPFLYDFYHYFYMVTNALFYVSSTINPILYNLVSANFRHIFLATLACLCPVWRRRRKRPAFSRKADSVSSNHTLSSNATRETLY

Albumin = Albumin (Bos taurus, UniProt P02769); assay: Counterscreen for inhibitors of T-cell receptor (TCR)-CD3 interaction: Fluorescence-based biochemical high throughput dose response assay to identify inhibitors of T-cell receptor (TCR)-CD3 interaction using a TAMRA-labeled BSA probe.; assay type: functional
Albumin, sequence (P02769 whole entry): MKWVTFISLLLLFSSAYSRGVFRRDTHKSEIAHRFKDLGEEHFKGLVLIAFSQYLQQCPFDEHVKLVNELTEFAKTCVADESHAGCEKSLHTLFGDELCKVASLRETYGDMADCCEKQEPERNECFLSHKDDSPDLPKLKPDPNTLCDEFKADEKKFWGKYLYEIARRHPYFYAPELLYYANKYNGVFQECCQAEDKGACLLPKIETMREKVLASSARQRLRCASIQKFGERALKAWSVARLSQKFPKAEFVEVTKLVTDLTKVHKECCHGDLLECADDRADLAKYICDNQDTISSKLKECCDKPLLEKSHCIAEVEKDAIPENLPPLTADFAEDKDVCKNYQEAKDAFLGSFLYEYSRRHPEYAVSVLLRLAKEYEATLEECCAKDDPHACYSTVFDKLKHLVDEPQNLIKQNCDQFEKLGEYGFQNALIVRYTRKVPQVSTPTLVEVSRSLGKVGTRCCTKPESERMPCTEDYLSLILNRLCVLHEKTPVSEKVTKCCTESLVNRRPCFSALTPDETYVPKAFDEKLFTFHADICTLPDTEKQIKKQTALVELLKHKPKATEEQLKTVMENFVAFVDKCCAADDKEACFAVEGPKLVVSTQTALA

[4] = THP-1 cell cytotoxicity, dose response, cytotoxicity control for Vif-APOBEC3G degradation inhibitor project, THP-1 cells (AID 1117359); assay type: functional; conditions: Human immunodeficiency virus 1, THP-1
SUMO-activating enzyme [5] = biological target: T2, SUMO-activating enzyme (Homo sapiens, UniProt Q9UBT2); assay: SUMOylation inhibitor hit validation, confirmation, SUMOylation inhibitor project, biochemical, AlphaScreen (AID 2018); assay type: functional
T2 sequence (Q9UBE0 whole entry): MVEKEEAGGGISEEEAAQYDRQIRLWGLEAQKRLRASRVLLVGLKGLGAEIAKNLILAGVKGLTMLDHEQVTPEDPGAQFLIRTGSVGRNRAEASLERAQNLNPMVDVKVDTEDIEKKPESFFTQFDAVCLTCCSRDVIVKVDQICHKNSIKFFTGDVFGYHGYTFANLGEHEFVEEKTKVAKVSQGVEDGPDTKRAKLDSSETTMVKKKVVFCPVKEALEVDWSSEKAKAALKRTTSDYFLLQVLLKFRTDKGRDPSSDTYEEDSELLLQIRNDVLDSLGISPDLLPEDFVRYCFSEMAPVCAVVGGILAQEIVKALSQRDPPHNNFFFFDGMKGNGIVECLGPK
T2 sequence (Q9UBT2 whole entry): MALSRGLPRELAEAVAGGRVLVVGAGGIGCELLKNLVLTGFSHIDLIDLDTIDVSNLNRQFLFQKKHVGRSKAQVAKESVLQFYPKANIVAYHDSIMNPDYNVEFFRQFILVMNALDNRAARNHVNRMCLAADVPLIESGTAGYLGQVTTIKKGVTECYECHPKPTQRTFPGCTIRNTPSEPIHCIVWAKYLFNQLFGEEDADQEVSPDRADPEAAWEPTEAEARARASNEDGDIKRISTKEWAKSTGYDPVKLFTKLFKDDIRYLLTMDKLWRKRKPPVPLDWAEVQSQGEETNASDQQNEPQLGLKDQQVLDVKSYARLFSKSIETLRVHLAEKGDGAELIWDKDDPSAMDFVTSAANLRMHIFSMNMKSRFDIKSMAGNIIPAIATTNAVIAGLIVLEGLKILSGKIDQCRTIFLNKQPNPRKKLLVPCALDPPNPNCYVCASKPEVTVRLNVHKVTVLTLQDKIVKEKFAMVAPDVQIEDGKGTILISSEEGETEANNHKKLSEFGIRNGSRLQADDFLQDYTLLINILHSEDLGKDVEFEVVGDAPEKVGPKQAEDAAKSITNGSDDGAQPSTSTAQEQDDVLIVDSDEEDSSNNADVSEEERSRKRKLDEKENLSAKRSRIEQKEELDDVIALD

SUMO-activating enzyme [6] = biological target: T2, SUMO-activating enzyme; assay: inhibitors of in vitro SUMOylation cascade, primary screen, biochemical, HTRF, uHTS (AID 2006); assay type: protein-complex assay
[7] = biological target: Induced myeloid leukemia cell differentiation protein Mcl-1 (Homo sapiens, UniProt Q07820); assay type: functional
[8] = biological target: 26S proteasome non-ATPase regulatory subunit 14 (Homo sapiens, UniProt O00487); assay: inhibition of proteasome subunit RPN11 – biochemical, fluorescence polarization, uHTS hits, confirmation (AID 602368); assay type: functional
26S proteasome non-ATPase regulatory subunit 14, sequence (O00487 whole entry): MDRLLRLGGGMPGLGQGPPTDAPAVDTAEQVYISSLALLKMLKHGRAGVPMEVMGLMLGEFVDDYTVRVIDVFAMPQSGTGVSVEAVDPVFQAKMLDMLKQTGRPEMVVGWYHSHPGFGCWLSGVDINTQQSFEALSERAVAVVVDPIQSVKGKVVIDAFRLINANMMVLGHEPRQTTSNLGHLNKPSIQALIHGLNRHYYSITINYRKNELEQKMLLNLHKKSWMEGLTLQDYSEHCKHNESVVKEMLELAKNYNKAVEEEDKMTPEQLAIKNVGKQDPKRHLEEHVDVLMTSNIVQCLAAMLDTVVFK

[9] = biological target: 72 kDa type IV collagenase (Homo sapiens, UniProt P08253); assay: Dose Response validation of uHTS RPN11 inhibitor hits using a MMP-2 Fluorescence assay.; assay type: functional
72 kDa type IV collagenase, sequence (P08253 whole entry): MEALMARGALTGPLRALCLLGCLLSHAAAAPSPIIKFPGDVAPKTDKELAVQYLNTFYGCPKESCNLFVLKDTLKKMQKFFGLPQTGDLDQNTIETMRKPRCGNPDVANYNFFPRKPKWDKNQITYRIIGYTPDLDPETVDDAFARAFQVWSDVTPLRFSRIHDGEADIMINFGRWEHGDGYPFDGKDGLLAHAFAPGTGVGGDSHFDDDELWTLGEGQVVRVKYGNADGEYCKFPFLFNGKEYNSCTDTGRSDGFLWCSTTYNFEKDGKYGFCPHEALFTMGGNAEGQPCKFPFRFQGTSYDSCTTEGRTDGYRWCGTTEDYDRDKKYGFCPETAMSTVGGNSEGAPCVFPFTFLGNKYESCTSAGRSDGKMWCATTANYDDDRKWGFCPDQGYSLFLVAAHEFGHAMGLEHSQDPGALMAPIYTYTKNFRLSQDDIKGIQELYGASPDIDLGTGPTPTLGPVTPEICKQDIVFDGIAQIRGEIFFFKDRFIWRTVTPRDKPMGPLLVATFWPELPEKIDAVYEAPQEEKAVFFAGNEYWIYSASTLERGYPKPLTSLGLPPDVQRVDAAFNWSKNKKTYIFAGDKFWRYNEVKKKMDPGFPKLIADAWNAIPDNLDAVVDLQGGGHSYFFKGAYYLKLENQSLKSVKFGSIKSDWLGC

Prothrombin = Prothrombin (Bos taurus, UniProt P00735); assay: thrombin inhibition, dose response, biochemical, fluorescence polarization, uHTS hits (AID 602369); assay type: functional
NS3 = NS3 (Hepatitis C virus, UniProt A3EZJ3); assay: PubChem AID 2173; parameters: species or system Hepacivirus hominis
NS3, sequence (A3EZJ3 whole entry): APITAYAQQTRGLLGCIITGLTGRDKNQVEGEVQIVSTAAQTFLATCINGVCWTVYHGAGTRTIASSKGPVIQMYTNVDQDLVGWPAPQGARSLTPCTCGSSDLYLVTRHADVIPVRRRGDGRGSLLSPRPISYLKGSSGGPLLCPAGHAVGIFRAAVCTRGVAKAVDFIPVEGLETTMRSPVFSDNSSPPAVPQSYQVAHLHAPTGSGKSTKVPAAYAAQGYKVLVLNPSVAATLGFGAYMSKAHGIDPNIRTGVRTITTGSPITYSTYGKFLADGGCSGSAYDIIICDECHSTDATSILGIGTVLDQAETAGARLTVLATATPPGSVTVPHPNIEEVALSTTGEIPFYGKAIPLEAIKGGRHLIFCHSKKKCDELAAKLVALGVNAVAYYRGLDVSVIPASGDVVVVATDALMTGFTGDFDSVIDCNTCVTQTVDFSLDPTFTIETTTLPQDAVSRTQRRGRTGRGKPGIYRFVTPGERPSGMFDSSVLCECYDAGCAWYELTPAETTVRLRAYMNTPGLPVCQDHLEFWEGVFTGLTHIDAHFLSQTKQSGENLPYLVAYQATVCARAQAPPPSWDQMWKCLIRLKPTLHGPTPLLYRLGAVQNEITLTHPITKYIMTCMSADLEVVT

[10] = cytotoxicity in HEK-293T cells, dose response, cytotoxicity control for BCR NF-kB inhibitor project, luminescence, B-cell screen hits (AID 489021); assay type: functional, cell-based;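 note: HEK-293T cells carrying an NF-kB luciferase reporter; cells exposed to compound for about 14 hours before viability readout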

T1 sequence (P0DMV8 whole entry): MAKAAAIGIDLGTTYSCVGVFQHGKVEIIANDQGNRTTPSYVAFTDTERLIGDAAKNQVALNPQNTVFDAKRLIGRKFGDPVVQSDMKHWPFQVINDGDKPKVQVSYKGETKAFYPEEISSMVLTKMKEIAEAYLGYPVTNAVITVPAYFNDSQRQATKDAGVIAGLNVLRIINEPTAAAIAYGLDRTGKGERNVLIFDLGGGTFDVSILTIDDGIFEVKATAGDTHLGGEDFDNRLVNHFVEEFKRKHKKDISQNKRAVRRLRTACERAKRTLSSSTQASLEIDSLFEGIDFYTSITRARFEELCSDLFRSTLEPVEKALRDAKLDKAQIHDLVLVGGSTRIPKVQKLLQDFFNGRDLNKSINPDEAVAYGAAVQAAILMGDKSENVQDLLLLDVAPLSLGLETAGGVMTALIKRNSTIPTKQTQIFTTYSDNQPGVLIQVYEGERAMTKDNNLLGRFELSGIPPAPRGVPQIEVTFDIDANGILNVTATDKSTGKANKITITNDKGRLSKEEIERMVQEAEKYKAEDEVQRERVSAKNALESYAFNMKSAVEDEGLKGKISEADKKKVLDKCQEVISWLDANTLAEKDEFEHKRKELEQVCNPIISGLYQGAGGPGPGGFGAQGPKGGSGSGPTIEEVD

Compound: C=CCOC(=O)C(C#N)c1nc2ccccc2nc1N1CCCC1 (centres undefined)
- IC50 [1]: > 100 µM (not active)
- IC50 [2]: > 100 µM (not active)

Compound: O=c1cc(-c2ccc(O)cc2)oc2cc(O)c(C3OC(CO)C(O)C(O)C3O)c(O)c12 (centres undefined)
- IC50 (Large T antigen): 21.4 µM (active)
- EC50 [3]: 2.71 µM (active)
- IC50 (Albumin): > 94.1 µM (inactive)
- CC50 [4]: > 40 µM (active)

Compound: Cc1ccc(CSc2nnc(SCC(=O)N/N=C/c3c[nH]c4ccccc34)s2)cc1
- IC50 (SUMO-activating enzyme [5]): 1.38 µM (active)
- IC50 (SUMO-activating enzyme [6]): 17.6 µM (active)
- IC50 [7]: 3.91 µM (active)
- IC50 [8]: 6.88 µM (active)
- IC50 [9]: > 100 µM (inactive)
- IC50 (Prothrombin): 55.4 µM (active)

Compound: COc1ccc2[nH]c3c(=O)n(CCCC(=O)NC4CCCCC4C)c(=S)[nH]c3c2c1 (centres undefined)
- IC50 (NS3): 45.7 µM (not active)

Compound: COc1cc(C[C@@H]2C(=O)OC[C@H]2Cc2ccc(OC)c(OC)c2)ccc1O
- IC50 [10]: > 80 µM (inactive)
